Measured values: PubChem BioAssay AID624142 (National Center for Advancing Translational Sciences (NCATS), 2012)

Tested on: human liver microsomes, half-life, LC-MS/MS
Assay: qHTS Assay to Find Inhibitors of T. brucei phosphofructokinase: Human Liver Microsome Stability
Conditions: at 1 µM; active compounds read high

half-life: 5.5 h
Structure (SMILES): O=C(Cc1ccc(Cl)c(Cl)c1)Nc1ccc(S(=O)(=O)Nc2ccon2)cc1
